Molecular target: T1, KRAS^G12C::SOS1 (Homo sapiens, UniProt Q07889)
T1 sequence (Q07889 1-1333): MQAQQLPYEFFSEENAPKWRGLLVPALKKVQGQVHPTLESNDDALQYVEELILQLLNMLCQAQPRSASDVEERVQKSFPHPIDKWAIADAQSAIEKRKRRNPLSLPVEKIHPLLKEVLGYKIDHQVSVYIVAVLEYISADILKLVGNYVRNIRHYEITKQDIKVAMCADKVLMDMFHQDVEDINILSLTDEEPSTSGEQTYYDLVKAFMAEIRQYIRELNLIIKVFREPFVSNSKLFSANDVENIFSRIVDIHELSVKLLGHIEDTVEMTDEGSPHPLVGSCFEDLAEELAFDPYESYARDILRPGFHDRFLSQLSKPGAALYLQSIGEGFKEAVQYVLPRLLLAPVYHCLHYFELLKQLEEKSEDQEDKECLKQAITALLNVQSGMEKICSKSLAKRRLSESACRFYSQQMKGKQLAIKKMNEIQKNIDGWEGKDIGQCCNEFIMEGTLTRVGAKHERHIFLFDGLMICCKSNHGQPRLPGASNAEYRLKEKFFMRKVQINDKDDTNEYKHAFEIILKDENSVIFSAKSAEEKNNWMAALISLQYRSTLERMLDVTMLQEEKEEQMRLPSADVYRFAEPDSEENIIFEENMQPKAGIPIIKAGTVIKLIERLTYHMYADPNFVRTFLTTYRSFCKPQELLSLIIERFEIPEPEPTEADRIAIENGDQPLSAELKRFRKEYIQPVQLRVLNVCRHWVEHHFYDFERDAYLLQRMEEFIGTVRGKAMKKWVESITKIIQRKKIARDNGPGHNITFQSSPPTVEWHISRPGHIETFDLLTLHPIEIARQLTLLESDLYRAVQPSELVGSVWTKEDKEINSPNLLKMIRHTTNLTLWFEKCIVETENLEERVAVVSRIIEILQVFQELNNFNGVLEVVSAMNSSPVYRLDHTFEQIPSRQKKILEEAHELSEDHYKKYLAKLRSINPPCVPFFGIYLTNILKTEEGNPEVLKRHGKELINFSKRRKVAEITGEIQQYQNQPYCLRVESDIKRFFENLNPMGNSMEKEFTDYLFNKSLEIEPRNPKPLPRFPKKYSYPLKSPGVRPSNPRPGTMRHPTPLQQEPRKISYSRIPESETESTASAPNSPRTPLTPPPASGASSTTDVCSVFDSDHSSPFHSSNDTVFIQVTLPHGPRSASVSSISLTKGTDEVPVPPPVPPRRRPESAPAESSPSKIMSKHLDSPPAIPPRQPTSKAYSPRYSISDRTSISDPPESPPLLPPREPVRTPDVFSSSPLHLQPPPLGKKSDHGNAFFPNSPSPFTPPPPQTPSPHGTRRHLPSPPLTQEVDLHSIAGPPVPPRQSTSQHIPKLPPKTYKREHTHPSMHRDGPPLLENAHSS
Assay: KRAS G12C::SOS1 protein-protein interaction (PPI) inhibition assay (HTRF binding kit)

Question: With `CNCc1cc(F)ccc1-c1ccc([C@@H](C)NC(=O)c2ccc(=O)n(-c3ccccc3F)n2)s1` [Example 279, N-[(1R)-1-[5-[4-fluoro-2-(methylaminomethyl)phenyl]-2-thienyl]ethyl]-1-(2-fluorophenyl)-6-oxo-pyridazine-3-carboxamide] as the molecule, how does the IC50 read?
Answer: < 1000 nM

Question: For `C[C@@H](NC(=O)c1ccc(=O)n(-c2ccccc2F)n1)c1cccc(Oc2cccnc2)c1` [Example 305, 1-(2-fluorophenyl)-6-oxo-N-[(1R)-1-[3-(3-pyridyloxy)phenyl]ethyl]pyridazine-3-carboxamide], which IC50 is on record?
Answer: > 10000 nM

Question: `CNCc1ccc(F)cc1-c1ccc([C@@H](C)NC(=O)c2ccc(=O)n(-c3cccnc3F)n2)s1` [Example 288, N-[(1R)-1-[5-[5-fluoro-2-(methylaminomethyl)phenyl]-2-thienyl]ethyl]-1-(2-fluoro-3-pyridyl)-6-oxo-pyridazine-3-carboxamide] was tested. Which IC50 did it give?
Answer: < 1000 nM

Question: Which IC50 does the source give for `C[C@@H](NC(=O)c1ccc(=O)n(-c2ccccc2F)n1)c1ccc(-c2ccccc2CO)s1` [Example 299, 1-(2-fluorophenyl)-N-[(1R)-1-[5-[2-(hydroxymethyl)phenyl]-2-thienyl]ethyl]-6-oxo-pyridazine-3-carboxamide] here?
Answer: 1000 to 10000 nM

Question: For `C[C@@H](NC(=O)c1ccc(=O)n(-c2cccc(C(=O)N3CCCC3)c2F)n1)c1cc(N)cc(C(F)(F)F)c1` [Example 230], which IC50 is on record?
Answer: < 1000 nM

Question: Which IC50 does the source give for `COc1cccc(-n2cc(C(=O)N[C@H](C)c3cc(N)cc(C(F)(F)F)c3)ccc2=O)c1F` [Example 187, N-[(1R)-1-[3-amino-5-(trifluoromethyl)phenyl]ethyl]-1-(2-fluoro-3-methoxy-phenyl)-6-oxo-pyridine-3-carboxamide] here?
Answer: < 1000 nM

Question: With `CNCc1ccc(Cl)cc1-c1ccc([C@@H](C)NC(=O)c2ccc(=O)n(-c3cccnc3)n2)s1` [Example 285, N-[(1R)-1-[5-[5-chloro-2-(methylaminomethyl)phenyl]-2-thienyl]ethyl]-6-oxo-1-(3-pyridyl)pyridazine-3-carboxamide] as the molecule, how does the IC50 read?
Answer: < 1000 nM

Question: How did the IC50 turn out when `C[C@@H](NC(=O)c1ccc(=O)n(-c2cccc(-c3nnnn3C)c2)n1)c1cc(N)cc(C(F)(F)F)c1` [Example 347, N-[(1R)-1-[3-amino-5-(trifluoromethyl)phenyl]ethyl]-1-[3-(1-methyltetrazol-5-yl)phenyl]-6-oxo-pyridazine-3-carboxamide] was run?
Answer: < 1000 nM

Question: How did the IC50 turn out when `CNCc1ccccc1-c1ccc([C@@H](C)NC(=O)c2nn(-c3ccccc3F)c(=O)c3cc[nH]c23)s1` [Example 268, 5-(2-fluorophenyl)-N-[(1R)-1-[5-[2-(methylaminomethyl)phenyl]-2-thienyl]ethyl]-4-oxo-1H-pyrrolo[2,3-d]pyridazine-7-carboxamide] was run?
Answer: < 1000 nM

Question: `CNCc1ccc(C)cc1-c1ccc([C@@H](C)NC(=O)c2ccc(=O)n(-c3cccnc3F)c2)s1` [Example 272, 1-(2-fluoro-3-pyridyl)-N-[(1R)-1-[5-[5-methyl-2-(methylaminomethyl)phenyl]-2-thienyl]ethyl]-6-oxo-pyridine-3-carboxamide] was tested. Which IC50 did it give?
Answer: < 1000 nM

Question: `Cc1nnn(C)c1-c1cccc(-n2nc(C(=O)N[C@H](C)c3cc(N)cc(C(F)(F)F)c3)ccc2=O)c1` [Example 350, N-[(1R)-1-[3-amino-5-(trifluoromethyl)phenyl]ethyl]-1-[3-(3,5-dimethyltriazol-4-yl)phenyl]-6-oxo-pyridazine-3-carboxamide] was tested. Which IC50 did it give?
Answer: < 1000 nM

Question: `C[C@@H](NC(=O)c1ccc(=O)n(-c2cccc(C(=O)N3CCOCC3)c2F)n1)c1cc(N)cc(C(F)(F)F)c1` [Example 233, (R)-N-(1-(3-amino-5-(trifluoromethyl)phenyl)ethyl)-1-(2-fluoro-3-(morpholine-4-carbonyl)phenyl)-6-oxo-1,6-dihydropyridazine-3-carboxamide] was tested. Which IC50 did it give?
Answer: < 1000 nM

Question: With `C[C@@H](NC(=O)c1ccc(=O)n(-c2ccccc2F)n1)c1cccc(F)c1Cl` [Example 261, N-[(1R)-1-(2-chloro-3-fluoro-phenyl)ethyl]-1-(2-fluorophenyl)-6-oxo-pyridazine-3-carboxamide] as the molecule, how does the IC50 read?
Answer: > 10000 nM
